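Protocol summary: plate cells (96-well), add compound at 5 concentrations, incubate 48 h, interpolate endpoints linearly. GI50 = concentration required for 50% inhibition of growth. TGI: concentration producing complete growth inhibition.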
Tests used:
Assay in all cases: NCI-60 cell line screen, 48 h
[1] = tested on: LOX IMVI melanoma
[2] = tested on: COLO 205 colon
[3] = tested on: OVCAR-5 ovarian
[4] = tested on: MALME-3M melanoma
[5] = tested on: HOP-62 NSCLC
[6] = tested on: OVCAR-8 ovarian
[7] = tested on: NCI-H522 lung
[8] = tested on: HOP-92 NSCLC
[9] = tested on: CCRF-CEM leukemia
[10] = tested on: UACC-62 melanoma

SMILES | TGI [1] [µM] | TGI [2] [µM] | TGI [3] [µM] | TGI [4] [µM] | TGI [5] [µM] | TGI [6] [µM] | TGI [7] [µM] | TGI [8] [µM] | TGI [9] [µM] | TGI [10] [µM] | GI50 [9] [µM]
COC(=O)C1OC(O[C@H]2CC[C@]3(C)[C@H]4CC=C5[C@@H]6CC(C)(C)CC[C@]6(C(=O)OC6OCC(O)C(O)C6OC6OC(C)C(OC7OCC(O)C(O)C7O)C(OC7OCC(O)(CO)C7O)C6O)[C@H](O)C[C@@]5(C)[C@]4(C)CC[C@H]3C2(C)C)C(O)C(O)C1O (stereo partly specified) | 20.1 | 2.92 | 13.4 | 15.7 | 10.1 | 24.4 | 5.78 | 3.94 | > 100 | 6.08 | –
O=C1CSC(c2cccc(Cl)c2)N1c1ccc(-c2ccc(-n3c(-c4ccccc4)nc4ccccc4c3=O)cc2)cc1 (stereo unspecified) | > 100 | > 100 | > 100 | > 100 | > 100 | > 100 | > 100 | 56.5 | > 100 | > 100 | –
O=C(O)/C=C/c1ccc2c(c1)CC1(Cc3ccccc3C1)C2 | > 100 | 52.3 | > 100 | > 100 | > 100 | > 100 | > 100 | > 100 | > 100 | > 100 | –
CCOC(=O)/C=C(\C(=O)OCC)n1cc(C)c(=O)n(Cc2cnnn2COCCOC(C)=O)c1=O | 21 | 4.33 | 43.8 | 3.42 | 55.6 | 20.6 | 2.91 | 4.27 | 5.57 | 31.1 | –
C/C(=N\O)c1cccc[n+]1Cc1ccccc1 | > 100 | > 100 | > 100 | > 100 | > 100 | > 100 | > 100 | > 100 | > 100 | > 100 | –
O=C(SCc1cccc2ccccc12)c1ccc(Cl)cc1 | > 100 | > 100 | > 100 | > 100 | > 100 | > 100 | > 100 | > 100 | > 100 | > 100 | –
CN(CCc1ccccn1)C(=S)N/N=C(\c1ccccc1)c1ccccn1 | 2.04 | 17.3 | 7.88 | 3.14 | 7.95 | 1.56 | 5.22 | 3.59 | > 100 | 2.04 | –
O=C(NO)NCCCl | > 100 | > 100 | > 100 | > 100 | > 100 | > 100 | > 100 | > 100 | > 100 | > 100 | –
Cn1cc(S(=O)(=O)NC(=O)Nc2ccc(Cl)cc2)c(=O)c2ccc(F)cc21 | > 100 | > 100 | > 100 | > 100 | > 100 | > 100 | > 100 | > 100 | > 100 | 63.4 | –
O=C(/C(=C\I)c1ccccc1)c1ccccc1 | 29.9 | 11.9 | 33.1 | 21.2 | 13.7 | 14.6 | 22.5 | 28.2 | 54 | 12 | –
CC12CCC(CC1)C(C)(C)O2 | 48.7 | 99.6 | 116 | 122 | 52.2 | 133 | 77.3 | 95.2 | 201 | 69.6 | 35.8
COc1ccccc1C(=O)NCC1CCCN2CCCCC12 (stereo unspecified) | > 100 | > 100 | > 100 | > 100 | > 100 | > 100 | > 100 | > 100 | > 100 | > 100 | –

Source: PubChem BioAssay (NCI)
